Literature values in patent US6797472B1, “Variation in drug response related to polymorphisms in β2-adrenergic receptor” (Genaissance Pharmaceuticals, Inc., priority 1999, dated 2004).

Assays:
[1] = molecular target: T1, Ile164 receptor (Homo sapiens, UniProt P07550, T164I); conditions: previous studies
[2] = molecular target: T1, Ile164 receptor; conditions: competition binding with [125I]cyp in the presence of GTP; reference 4

Row | binding affinity at Ile164 receptor [2] | SMILES | stimulation of adenylyl cyclase by Ile164 receptor compared to Thr164 receptor [1]
1 | normal binding affinities | NCCc1ccc(O)c(O)c1 [dopamine] | does not show decreased stimulation
2 | small decrease in binding affinity | NC[C@H](O)c1ccc(O)c(O)c1 [norepinephrine] | –

Row | SMILES | binding affinity at Ile164 receptor [2] | stimulation of adenylyl cyclase by Ile164 receptor compared to Thr164 receptor [1]
3 | CNC[C@H](O)c1ccc(O)c(O)c1 [epinephrine] | small decrease in binding affinity | decreased stimulation
